Tests used:
Assay type in all cases: cell-based
[1] = test system: translocation of the LC3 protein in Hela GFP-LC3 cells; assay: Translocation of the LC3 protein in Hela human cells measured by image analysis cytometry (test C, autophagy); details: Homo sapiens, HeLa, 2 h, EBSS + 10 μM hydroxychloroquine, cells with LC3 granulations, absolute IC50
In short: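 HeLa clone stably expressing GFP-LC3, starved in EBSS with 10 μM hydroxychloroquine plus compound (10 nM to 1 μM range, 0.1% DMSO) for 2 h at 37 °C. After PFA fixation and Hoechst staining, LC3 translocation read by image analysis cytometry; IC50 from dose-response curves, mean of 2 independent experiments.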

[2] = test system: AKT protein phosphorylated on serine 473 (pAKT-S473) in PC3 human prostate carcinoma cells; assay: pAKT expression in PC3 human prostate carcinoma cells measured by western blotting (test A); details: PC-3, 1 to 2 h incubation, absolute IC50
Description: The inhibitory activity of the molecules on AKT phosphorylation is measured either by western blotting using the technique described below, or by the MSD Multi-spot Biomarker detection technique from Meso Scale Discovery also described below.
Study of pAKT Expression in PC3 Human Prostate Carcinoma Cells Measured by Western Blotting (test A):
This test is based on measuring the expression of the AKT protein phosphorylated on serine 473. The phosphorylation of AKT (pAKT) is measured by western blotting in the PC3 human prostate carcinoma line (ATCC CRL-1435), using an antibody that specifically recognises pAKT-S473.
On day 1, the PC3 cells are seeded into 6-well plates (TPP, #92006) at the concentration of 0.8×10^6 cells/well in 1800 μl of DMEM medium (DMEM Gibco #11960-044) containing 10% of foetal calf serum (SVF Gibco, #10500-056) and 1% glutamine (L-Glu Gibco #25030-024), and incubated at 37° C., 5% CO2, overnight.
On day 2, the cells are incubated in the presence or absence of the test products for 1 to 2 hours at 37° C. in the presence of 5% CO2. The molecules, diluted in dimethyl sulphoxide (DMSO Sigma #D2650), are added from a 10-times concentrated stock solution, the final percentage of DMSO being 0.1%. The molecules are tested either at a single concentration of less than or equal to 10 μM, or at increasing concentrations in a range that can extend from less than 1 nM to 10 μM.
After this incubation, the cells are lysed for the preparation of the proteins. After the culture medium has been drawn off, the cells are rinsed with 1 ml of PBS (DPBS Gibco, #14190-094), recovered by scraping in 200 μl of complete HNTG buffer and transferred into a 96-well plate (Greiner #651201), and lysed for 1 h on ice. The HNTG buffer is composed of the following mixture: 50 mM hepes, 150 mM NaCl, 1% triton, 10% glycerol, with extemporaneous addition of one Mini Protease Inhibitor Cocktail tablet (Roche 1836153) and of one Phosphatase Inhibitor Cocktail tablet (Roche104906837001) per 10 ml of buffer.
The lysate is centrifuged for 10 min at 6000 rpm. 155 μl of supernatant are recovered. 150 μl are incubated for denaturation for 5 min at 95° C. in the presence of 4× NuPAGE LDS Sample Buffer diluted 4-fold (InVitrogen ref NP0007) and of 10× NuPAGE Sample Reducing Agent diluted 10-fold (InVitrogen ref NP0009). These samples are then frozen at −20° C. 5 μl are assayed by the microBCA technique according to the technical bulletin of the MicroBCA Protein Assay Kit (Pierce #23235).
For protein separation, 20 μg of proteins are loaded on to a NU-PAGE 4-12% Bis Tris Gel 12 well (InVitrogen ref NP0322BOX) and the migration is carried out for 1 h 30 in 20× NU-PAGE MOPS SDS Running Buffer diluted 20-fold (InVitrogen ref NP0001), at 150 volts.
The gel is then transferred on to an Invitrolon PVDF membrane (Invitrogen #LC2007) permeabilised before and after a few seconds in ethanol (Ethanol Fischer Scientific #E/0600DF/15).
The transfer is carried out in a Biorad tank at 30 volts overnight or at 60 volts for 3 hours, in the presence of 20× NUPAGE Transfer Buffer diluted 20-fold (InVitrogen ref NP0006).
The membrane is then saturated in saturating solution composed of TBS (10× Tris Buffered Saline, Sigma #T5912, diluted 10-fold), 0.1% Tween 20 (Sigma #P5927) and 3% BSA (Bovine Albumin Serum Fraction V, Sigma #A4503) for 6 h after overnight transfer or else for 1 h after transfer for a period of 3 h.
The primary antibodies are diluted to 1/1000 for the anti-phospho AKT-Ser473 antibody (1931-12, rabbit monoclonal, cat#4058 from Cell Signaling Technology Abcam), in saturating solution composed of PBS, 0.1% Tween 20 and 3% BSA, and then shaken overnight at 4° C.
Two rinses for 5 min in washing solution composed of TBS and 0.1% Tween 20 are carried out before hybridisation of the secondary antibodies. […]

[3] = test system: P. falciparum (highly chloroquine-resistant strain Fcm29-Cameroon); assay: Antimalarial activity test (radioactive micromethod of Desjardins, tritiated hypoxanthine incorporation); details: Plasmodium falciparum, Erythrocyte, infected human erythrocytes, 48 h
In short: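 P. falciparum cultured in infected human erythrocytes (2% haematocrit, 1.5% parasitaemia) in RPMI 1640 with 5% human serum and 1% DMSO, exposed to compound for 48 h at 37 °C, 5% CO2. Tritiated hypoxanthine added at 24 h; growth inhibition versus drug-free incorporation, reported as % at 1 μM and 0.1 μM.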

| SMILES | IC50 [1] [nM] | IC50 [2] [nM] | inhibition at 0.1 µM [3] [%] | inhibition at 1 µM [3] [%] |
| --- | --- | --- | --- | --- |
| CC(Cc1ccccc1)N1c2nc(N3CCOCC3)cc(=O)n2C[C@@]1(C)C(F)(F)F (single isomer, unassigned) [Example 12, (2S)-2-Methyl-1-((R) or (S)-1-methyl-2-phenylethyl)-7-morpholin-4-yl-2-trifluoromethyl-2,3-dihydro-1H-imidazo[1,2-a]pyrimidin-5-one] | 194 | 77 | – | – |
| C[C@@]1(C(F)(F)F)Cn2c(nc(N3CCOCC3)cc2=O)N1C[C@@H](O)c1ccccc1 [Example 10] | 31 | 16 | 38 | 97 |
| COc1ccc(CCN2c3nc(N4CCOCC4)cc(=O)n3CC2(C)C(F)(F)F)cc1 (racemic) [Example 2, (R,S)-1-[2-(4-methoxyphenyl)ethyl]-2-methyl-7-(morpholin-4-yl)-2-(trifluoromethyl)-2,3-dihydroimidazo[1,2-a]pyrimidin-5(1H)-one] | 145 | 324 | – | – |
| C[C@@]1(C(F)(F)F)Cn2c(nc(N3CCOCC3)cc2=O)N1CCc1ccc(N2CCOCC2)cc1 [Example 15, (S)-2-Methyl-7-morpholin-4-yl-1-[2-(4-morpholin-4-ylphenyl)ethyl]-2-trifluoromethyl-2,3-dihydro-1H-imidazo[1,2-a]pyrimidin-5-one] | 72 | 121 | 39 | 101 |

More lines, main results first:

| IC50 [1] [nM] | IC50 [2] [nM] | SMILES | inhibition at 0.1 µM [3] [%] | inhibition at 1 µM [3] [%] |
| --- | --- | --- | --- | --- |
| 493 | 634 | C[C@@]1(C(F)(F)F)Cn2c(nc(N3CCOCC3)cc2=O)N1Cc1ccccc1 [Example 3, (S)-1-Benzyl-2-methyl-7-morpholin-4-yl-2-trifluoromethyl-2,3-dihydro-1H-imidazo[1,2-a]pyrimidin-5-one] | 15 | 95 |
| 81 | 1640 | C[C@@]1(C(F)(F)F)Cn2c(nc(N3CCOCC3)cc2=O)N1CCOc1ccccc1 [Example 6, (S)-2-Methyl-7-morpholin-4-yl-1-(2-phenoxyethyl)-2-trifluoromethyl-2,3-dihydro-1H-imidazo[1,2-a]pyrimidin-5-one] | – | – |
| 107 | 25 | C[C@@]1(C(F)(F)F)Cn2c(nc(N3CCOCC3)cc2=O)N1CCc1ccccc1 [Example 4, (S)-2-Methyl-7-morpholin-4-yl-1-phenethyl-2-trifluoromethyl-2,3-dihydro-1H-imidazo[1,2-a]pyrimidin-5-one] | 54 | 97 |
| 13 | 15 | C[C@@H](CN1c2nc(N3CCOCC3)cc(=O)n2C[C@@]1(C)C(F)(F)F)c1ccccc1 [Example 8, (S)-2-Methyl-7-morpholin-4-yl-1-((R)-2-phenylpropyl)-2-trifluoromethyl-2,3-dihydro-1H-imidazo[1,2-a]pyrimidin-5-one] | – | – |

Reference: US8828997B2, “2,3-dihydro-1H-imidazo(1,2-a)pyrimidin-5-one derivatives, preparation thereof, and pharmaceutical use thereof” (Sanofi, priority 2009, dated 2014)
